Data taken from patent publication US20240368168A1, “SARM1 ENZYME ACTIVITY INHIBITOR AND APPLICATION THEREOF” (ARTIVILA BIOPHARMA, priority 2021, published 2024).
pEC50, pIC50: −log10 of the molar value.

Columns and labels:
[1] = molecular target: T1, SARM1 protein in iSARM1 (HEK293) cells (Homo sapiens, UniProt Q6SZW1); experiment: Inhibitory activity in inducible SARM1 overexpressing cell line, intracellular cADPR level; format: cell-based; conditions: activator CZ-48 100 μM, cADPR content
T1 construct: The full-length SARM1 was synthesized into the pUC57 plasmid by WZ Biosciences Inc., and PCR was performed using pUC57-SARM1 as a DNA template
T1 sequence (Q6SZW1 28-724): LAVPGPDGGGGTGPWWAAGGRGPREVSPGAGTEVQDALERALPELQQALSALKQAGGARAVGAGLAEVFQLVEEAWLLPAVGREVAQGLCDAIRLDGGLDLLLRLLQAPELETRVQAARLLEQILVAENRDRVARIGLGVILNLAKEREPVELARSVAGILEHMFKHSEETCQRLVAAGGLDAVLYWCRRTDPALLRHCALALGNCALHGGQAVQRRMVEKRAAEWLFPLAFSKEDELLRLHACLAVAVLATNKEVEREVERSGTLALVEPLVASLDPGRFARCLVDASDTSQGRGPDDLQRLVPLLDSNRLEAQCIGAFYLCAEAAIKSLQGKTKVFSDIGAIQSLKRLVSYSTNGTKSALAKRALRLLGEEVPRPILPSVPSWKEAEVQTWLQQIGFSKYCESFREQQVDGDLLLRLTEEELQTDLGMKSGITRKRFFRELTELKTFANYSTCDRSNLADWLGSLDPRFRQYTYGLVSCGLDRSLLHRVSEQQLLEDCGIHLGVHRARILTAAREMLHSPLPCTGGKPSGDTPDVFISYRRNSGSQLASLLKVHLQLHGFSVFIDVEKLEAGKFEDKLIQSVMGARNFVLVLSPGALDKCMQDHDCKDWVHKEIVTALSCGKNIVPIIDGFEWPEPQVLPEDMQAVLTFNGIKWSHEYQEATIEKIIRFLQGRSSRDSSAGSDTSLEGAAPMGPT
How it was run: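 Inducible SARM1-overexpressing HEK293 cells preincubated 1.5 h with inhibitor (50 μM final), then activated with 100 μM CZ-48 for 16 h. Intracellular cADPR extracted with perchloric acid, NAD+ removed by NADase, and quantified by cyclase-coupled resazurin cycling assay (Ex/Em 544/599, 30 min kinetics) against cADPR standards; inhibition rate and IC50 calculated.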

dN-SARM1 protein [2] = molecular target: T2, dN-SARM1 protein (Homo sapiens, UniProt Q6SZW1); experiment: In vitro biochemical assay for inhibiting SARM1 enzymatic activity (IC50), PC6 fluorescence method; conditions: 50 μM NAD, 50 μM PC6, 50 μM NMN activator
T2 construct: the N-terminal mitochondrial localization signal peptide of SARM1 was removed
T2 sequence (Q6SZW1 28-724): T1 sequence (Q6SZW1 28-724)
How it was run: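 Activity read as the rate of PC6 fluorescence change (390 nm excitation, 520 nm emission) over a 30 min room-temperature reaction containing final 50 μM each of NAD, PC6 and NMN activator. Enzyme, 0.05 μg/ml dN-SARM1 in 50 mM Tris-HCl pH 7.5, first incubated 10 min with compound diluted serially from 200 μM; IC50 calculated.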

dN-SARM1 protein [3] = molecular target: T2, dN-SARM1 protein; experiment: In vitro biochemical assay for inhibiting SARM1 enzymatic activity (% inhibition rate), PC6 fluorescence method; conditions: 20 μM compound; 50 μM NAD, 50 μM PC6, 50 μM NMN activator
Experimental: The compounds were subjected to PC6 fluorescence method measurement [Chinese Patent 202010528147.3] using the dN-SARM1 protein obtained through “(4) Protein extraction” in “Expression and purification of SARM1 protein” in the above biological activity example 1.
First, 0.05 μg/ml dN-SARM1 and 20 μM compound were incubated in 50 mM Tris-HCl (pH 7.5) solution for 10 min, and then added with 50 μM NAD and 50 μM PC6 as substrate and 50 μM NMN as activator for 30 minutes of reaction at room temperature. The concentration of each component was the final concentration in the reaction system.
During the reaction, PC6 fluorescence spectrum dynamics were detected by a microplate reader, wherein the excitation wavelength and emission wavelength for detection were 390 nm and 520 nm, respectively. Finally, the reaction rate was used to express the activity of the protein. The higher the reaction rate, the stronger the activity of the protein and the lower the inhibitory efficiency of the compound.

Row | Compound | pEC50 [1] | pIC50 (dN-SARM1 protein [2]) | inhibition at 20 µM (dN-SARM1 protein [3]) [%]
1 | Brc1cnc2ccc(N3CCOCC3)cn12 [Compound 33] | 5.00 to 6.00 | 5.00 to 6.00 | > 90
2 | CC(C)(C)OC(=O)Nc1ccc2ncc(I)n2c1 [Compound 44] | 5.00 to 6.00 | 5.00 to 6.00 | 50 to 89
3 | CN(C(=O)OC(C)(C)C)c1ccc2ncc(-c3cccc(NC(=O)C4CCOCC4)c3)n2c1 [Compound 49] | > 6.00 | 5.00 to 6.00 | > 90
4 | COCCOCC(=O)Nc1ccc(-c2cnc3ccc(N(C)C(=O)OC(C)(C)C)cn23)cc1 [Compound 50] | 5.00 to 6.00 | 5.00 to 6.00 | > 90
5 | CNc1ccc2ncc(-c3cccc(NC(=O)COCCOCC(=O)Nc4cccc(-c5cnc6ccc(NC)cn56)c4)c3)n2c1 [Compound 78] | 5.00 to 6.00 | > 6.00 | > 90
6 | CNc1ccc2ncc(-c3cccc(NC(=O)COCCOCCOCC(=O)Nc4cccc(-c5cnc6ccc(NC)cn56)c4)c3)n2c1 [Compound 79] | 5.00 to 6.00 | > 6.00 | > 90
7 | CNc1ccc2ncc(C(=O)Nc3ccccc3)n2c1 [Compound 105, 6-(methylamino)-N-phenylimidazo[1,2-a]pyridin-3-carboxamide] | 5.00 to 6.00 | 5.00 to 6.00 | > 90
8 | CC(C)(C)OC(=O)Nc1ccc2ncc(-c3cccc(NC(=O)COCCOCCOCC(=O)Nc4cccc(-c5cnc6ccc(NC(=O)OC(C)(C)C)cn56)c4)c3)n2c1 [Compound 123] | > 6.00 | > 6.00 | > 90
9 | COCCOCC(=O)Nc1cccc(-c2cnc3ccc(NC(=O)C(C)(C)C)cn23)c1 [Compound 130] | 5.00 to 6.00 | > 6.00 | > 90
10 | COCCOCC(=O)Nc1cccc(-c2cnc3ccc(NC(=O)COC)cn23)c1 [Compound 131] |  | 5.00 to 6.00 | > 90
11 | CN(C(=O)OC(C)(C)C)c1ccc2ncc(-c3cccc(C(=O)O)c3)n2c1 [Compound 132, 3-(6-((tert-butoxycarbonyl)(methyl)amino)imidazo[1,2-a]pyridin-3-yl)benzoic acid] |  | 5.00 to 6.00 | > 90
12 | CNc1ccc2ncc(-c3cccc(C(=O)NCCOCCOC)c3)n2c1 [Compound 134] |  | > 6.00 | > 90
13 | CC(C)(C)OC(=O)NCc1ccc2ncc(I)n2c1 [Compound 143] |  | 5.00 to 6.00 | > 90
14 | COCCOCC(=O)Nc1cccc(-c2cnc3ccc(CNC(=O)OC(C)(C)C)cn23)c1 [Compound 145] |  | > 6.00 | > 90
15 | COCCOCC(=O)Nc1cccc(-c2cnc3ccc(CNC(=O)C(C)(C)C)cn23)c1 [Compound 146] |  | 5.00 to 6.00 | > 90
16 | CN(C(=O)OC(C)(C)C)c1ccc2ncc(-c3cccc(NC(=O)C4CCOC4)c3)n2c1 (stereo not shown) [Compound 149] |  | 5.00 to 6.00 | > 90
17 | CNc1ccc2ncc(-c3cccc(OCCOCCOC)c3)n2c1 [Compound 153] |  | 5.00 to 6.00 | > 90

Next, values leading:

Row | pEC50 [1] | pIC50 (dN-SARM1 protein [2]) | inhibition at 20 µM (dN-SARM1 protein [3]) [%] | Compound
18 | 5.00 to 6.00 | > 6.00 | 50 to 89 | CNc1ccc2ncc(-c3ccccc3)n2n1 [Compound 20]
19 | 5.00 to 6.00 | 5.00 to 6.00 | > 90 | FC(F)(F)c1ccc2ncc(-c3ccccc3)n2c1 [Compound 25]
20 | 5.00 to 6.00 | 5.00 to 6.00 | > 90 | c1cn2cc(N3CCOCC3)ccc2n1 [Compound 32]
21 | 5.00 to 6.00 | 5.00 to 6.00 | > 90 | c1ccc(-c2cnc3ccc(N4CCOCC4)cn23)cc1 [Compound 34]
22 | 5.00 to 6.00 | 5.00 to 6.00 | > 90 | CN(C(=O)OC(C)(C)C)c1ccc2ncc(-c3ccc(N)cc3)n2c1 [Compound 40]
23 | > 6.00 | 5.00 to 6.00 | > 90 | c1ccc(Nc2ccc3ncc(-c4ccccc4)n3c2)cc1 [Compound 75]
24 | 5.00 to 6.00 | 5.00 to 6.00 | > 90 | CC(C)(C)OC(=O)N(c1ccccc1)c1ccc2ncc(-c3ccccc3)n2c1 [Compound 90]
25 | 5.00 to 6.00 | > 6.00 | > 90 | CN(C(=O)OC(C)(C)C)c1ccc2ncc(-c3cccc(NC(=O)COCCOCCOCC(=O)Nc4cccc5c4CN(C4CCC(=O)NC4=O)C5=O)c3)n2c1 (stereo not shown) [Compound 115, tert-butyl (3-(3-(2-(2-(2-(2-((2-(2,6-dioxopiperidin-3-yl))-1-oxoisoindolin-4-yl)amino)-2-oxoethoxy)ethoxy)ethoxy)acetamido)phenyl)imidazo[1,2-a]pyridin-6-yl)(methyl) carbamate]
26 | > 6.00 | > 6.00 | > 90 | CC(C)(C)OC(=O)Nc1ccc2ncc(-c3cccc(NC(=O)COCCOCC(=O)Nc4cccc(-c5cnc6ccc(NC(=O)OC(C)(C)C)cn56)c4)c3)n2c1 [Compound 122]
27 | 5.00 to 6.00 | > 6.00 | > 90 | COCCOCC(=O)Nc1cccc(-c2cnc3ccc(NC(=O)C4CC4)cn23)c1 [Compound 129, N-(3-(3-(2-(2-methoxyethoxy)acetamido)phenyl)imidazo[1,2-a]pyridin-6-yl)cyclopropanecarboxamide]
28 |  | > 6.00 | > 90 | CNc1ccc2ncc(-c3cccc(C(=O)NC4CCOCC4)c3)n2c1 [Compound 136]
29 |  | > 6.00 | > 90 | CC(C)(C)OC(=O)NCc1ccc2ncc(-c3cccc(N)c3)n2c1 [Compound 144]
30 |  | 5.00 to 6.00 | > 90 | CN(C(=O)OC(C)(C)C)c1ccc2ncc(-c3cccc(NC(=O)C4COC4)c3)n2c1 [Compound 150]
31 |  | 5.00 to 6.00 | > 90 | CCOC(=O)CCC(=O)Nc1cccc(-c2cnc3ccc(N(C)C(=O)OC(C)(C)C)cn23)c1 [Compound 151]
32 |  | 5.00 to 6.00 | > 90 | CN(C(=O)OC(C)(C)C)c1ccc2ncc(-c3cccc(NC(=O)NC[C@@H]4CCO4)c3)n2c1 [Compound 152]
33 |  | > 6.00 | > 90 | CNc1ccc2ncc(-c3cccc(OCC4CCOCC4)c3)n2c1 [Compound 154]
